Results taken from patent US5759995A, “Antiviral treatment” (priority 1996, dated 1998).

Columns and labels:
HSV-2 [1] = experiment: Multiplicity of infection study using the HSV-2 ELISA assay; assay type: cell-based, Herpes Simplex virus 2; conditions: 18 hours
Procedure: (§1) The ability of cyclomarin-A to inhibit HSV-2 was tested in a culture-based ELISA assay. This assay measures viral glycoprotein inserted into the surface membrane of infected cells, a step in the process of viral replication. Vero cells (African Green monkey kidney cells) were grown in RPMI-1640 medium with L-glutamine (Quality Biological, Gaithersburg, Md.) with 5% fetal bovine serum (FBS) and passaged twice weekly by trypsinization. These were plated in 96-well sterile tissue culture plates at 2×10^4 cells/well. After incubation overnight at 37° C. in a humidified atmosphere with 5% CO2, wells were inoculated with 1000 plaque forming units per well (PFU/well) HSV-2 (MacIntyre strain, ATCC # VR-539), previously titered by plaque assay and stored at -80° C. Virus was absorbed for 1 hour. Cyclomarin-A was diluted to concentrations between 10^-7 g/ml and 10^-4 g/ml in 50% DMSO and added to the cells in a final volume of 1.5 μl with 150 μl RPMI and 1% FBS. The final DMSO concentration was 0.5%. Plates were incubated for 18 hours at 37° C., and fixed with 10% formalin to inactivate the virus.
(§2) Plates were incubated for 1 hour with a rabbit anti-HSV-2 IgG antibody diluted 1:5000 (DAKO, Carpenteria, Calif., catalog #B116), washed with PBS and incubated another hour with an HRP-labeled goat anti-rabbit antibody diluted 1:4000 (DAKO, catalog #PO448). After washing with PBS, TMB substrate was added for 15 minutes and reaction was stopped with addition of 1M phosphoric acid. OD was measured spectrophotometrically at a wavelength of 450 nm. Percent inhibition of HSV-2 was calculated against an infected, vehicle control (DMSO) with no drug added.
The effect of multiplicity of virus infection on cyclomarin-A activity was examined using the HSV-2 ELISA assay described in Example 1. Vero cell cultures were inoculated with HSV-2 to a final concentration of 500, 1000, 2500, and 5000 PFU/well. After cyclomarin-A was added to cells in 150 μl RPMI and 1% FBS, cells were incubated for 18 hours at which time the ELISA assay was completed. Percent inhibition of HSV-2 replication was calculated against an infected, vehicle control (DMSO) at the appropriate MOI with no drug added.

HSV-2 [2] = experiment: Combination study with acyclovir using the HSV-2 ELISA assay; assay type: cell-based, Herpes Simplex virus 2; conditions: cyclomarin-A 0 to 16 μg/ml, acyclovir 0 to 5 μg/ml
Procedure: as §1, with “The final DMSO concentration was 0.5%. Plates were incubated for 18 hours at 37° C., and fixed with 10% formalin to inactivate the virus.” left out
as §2, with “After washing with PBS, TMB substrate was added for 15 minutes and reaction was stopped with addition of 1M phosphoric acid.” left out, “added. […]” for “added.”

uninfected Vero cells = experiment: Vero cell growth inhibition (SRB stain); assay type: cell-based, African Green monkey; conditions: 48 hours
Procedure: The effect of cyclomarin-A on the growth of uninfected Vero cells was examined. Vero cells were grown in RPMI with 5% FBS and passaged twice weekly by trypsinization. These were plated in 96 well sterile tissue culture plates at 2×10^4 cells/well in 200 μl and incubated overnight at 37° C. in a humidified atmosphere with 5% CO2. Cyclomarin-A (10 mg/ml stock solution) was serially diluted (100, 50, 25 and 12.5 μg/ml final concentrations) in 100% DMSO, and added to the cells in a volume of 2 μl. Final DMSO concentration was 1%. Plates were incubated at 37° C. for 48 hours. Cells were fixed by addition of 50% TCA to each well. Plates were incubated at 4° C. for 1 hour. After washing cells with distilled water 0.4% SRB (sulforhodamine B in 1% acetic acid) stain was added to each well. After 25 minutes the stain was washed away with 1% acetic acid and wells were allowed to dry. The remaining stain was resolubilized in 10 mM Tris pH 10.0. Optical density (OD) was determined spectrophotometrically at 650 nm. Percent inhibition of cell growth was calculated based on no drug, vehicle (1% DMSO) control wells as 100%.

COC(c1ccccc1)[C@@H]1NC(=O)[C@H](C)NC(=O)[C@H](CC(C)CO)N(C)C(=O)[C@H](C(O)c2cn(C(C)(C)C3CO3)c3ccccc23)NC(=O)[C@H](C(C)C=C(C)C)NC(=O)[C@H](CC(C)C)N(C)C(=O)[C@H](C(C)C)NC1=O (stereo partly shown) [cyclomarin-A]
Percent inhibition of HSV-2 replication (HSV-2 [1]; 6.25 μg/ml cyclomarin-A, 500 PFU/well): 51% | Percent inhibition of HSV-2 replication (HSV-2 [1]; 6.25 μg/ml cyclomarin-A, 1000 PFU/well): 40% | Percent inhibition of HSV-2 replication (HSV-2 [1]; 6.25 μg/ml cyclomarin-A, 2,500 PFU/well): 17% | Percent inhibition of HSV-2 replication (HSV-2 [1]; 6.25 μg/ml cyclomarin-A, 5000 PFU/well): no detectable inhibition | Interference with acyclovir in combination (HSV-2 [2]): no interference with acyclovir | Percent inhibition of cell growth of uninfected Vero cells (uninfected Vero cells; 100 μg/ml): 27-33% | Effect on growth of uninfected Vero cells (uninfected Vero cells; concentrations below 50 μg/ml): no effect on cell growth
